Data from US4990450A, “Method of producing endo-α-N-acetylgalactosaminidase from microorganisms” (Seitetsu Kagaku Co., Ltd., priority 1987, dated 1991).
Like-named read-outs stand apart in the source and are kept apart here. One block for each compound: values may come before it.

Assays:
endo-α-GalNAcase [1] = assay: Effects of inhibitors (additives) on enzyme activity; type: biochemical, Alcaligenes sp. F-1906
Procedure: (§1) The activity of this enzyme can be measured with asialofetuin as a substrate. The enzyme reaction is carried out in citrate buffer, pH 4.5, at 37° C., and then stopped by adding a borate buffer, pH 9.1, to this reaction mixture. The Gal β1→3GalNAc produced is measured by the method of Reissig. One unit of enzyme activity is defined as the amount of enzyme that releases 1 μmol of Gal β1,→3GalNAc in one minute.
The enzyme was tested for the effects of various kinds of substances.

endo-α-GalNAcase [2] = assay: Substrate specificity of the enzyme; type: biochemical, Alcaligenes sp. F-1906
asialofetuin = assay: Enzyme activity with asialofetuin as substrate (optimum pH, optimum temperature, activity of purified enzyme); type: biochemical
Procedure: as §1
(§2) The optimum pH of the enzyme reaction is 4.5-5.0 The enzyme is stable in the pH range of 4.2-6.5. thin this pH range, the activity remains about 90% or more after the enzyme is left at 1 hour at 30° C.
(§3) The optimum temperature for the enzyme reaction is 40-45° C. The temperature at which the enzyme is stable for 10 minutes when kept in a phosphate buffer, pH 6.0, is 30° C. or less. At 40° C., about 70% of the activity remains after such treatment.
Commercially available mucin from pig gastric mucosa was mixed with 1 N sulfuric acid and left for 1 hour at 80° C. for hydrolysis, which removed the sialic acid moiety of the mucin. The hydrolysate was added to the medium at the concentration of 1%. Five hundred milliliters of the medium was put into each of 40 flasks with a capacity of 2 liters, which were sterilized and were inoculated with 5 ml of pre-cultured Alcaligenes sp. F-1906. The flasks were cultured at 28° C. for 3 days. After the culture, the bacterial cells were removed by centrifugation, and the supernatant of the culture was obtained. Ammonium sulfate was added to this supernatant at 0-5° C. and the fractions that precipitated at the saturation of 40-80% ammonium sulfate were collected. This precipitate was dissolved in 0.01 M phosphate buffer, pH 6.0, and then dialyzed overnight against the same buffer. The dialysate was put on a DEAE-Sephadex® A-50 column (5.0×32.5 cm) equilibrated with 0.01 M phosphate buffer. After the column was washed with the same buffer containing 0.2 M NaCl, the enzyme was eluted with the same buffer containing 0.4 M NaCl. […]

[3] = pH and temperature stability of the enzyme; type: physicochemical
Procedure: as §2, §3

[4] = additive concentration 2.5 mM, no additive = 100
[5] = additive concentration 2.4 mM, no additive = 100
[6] = additive concentration 2.0 mM, no additive = 100

Compound: [Ca+2] [Ca]
Relative activity (endo-α-GalNAcase [1]; [4]): 109%

Compound: [Cu+2] [Cu]
Inhibition of the enzyme (endo-α-GalNAcase [1]; Table 2): 26-35% | Relative activity (endo-α-GalNAcase [1]; [4]): 74%

Inhibition of the enzyme (endo-α-GalNAcase [1]; Table 2): approximately 30% | Relative activity (endo-α-GalNAcase [1]; [5]): 68%
Compound: N[C@@H](CS)C(=O)O [Cysteine]

Relative activity (endo-α-GalNAcase [1]; [4]): 97%
Compound: O=C(O)CN(CCN(CC(=O)O)CC(=O)O)CC(=O)O [Ethylenediamine-tetraacetic acid]

Relative activity (endo-α-GalNAcase [1]; [6]): 106%
Compound: N[C@H]1C(O)O[C@H](CO)[C@H](O)[C@@H]1O (stereo partly drawn) [Galactosamine]

Relative activity (endo-α-GalNAcase [1]; [6]): 107%
Compound: OC[C@H]1OC(O)[C@H](O)[C@@H](O)[C@H]1O (stereo partly drawn) [Galactose]

Relative activity (endo-α-GalNAcase [1]; [6]): 111%
Compound: N[C@H]1C(O)O[C@H](CO)[C@@H](O)[C@@H]1O (stereo partly drawn) [Glucosamine]

Relative activity (endo-α-GalNAcase [1]; [6]): 109%
Compound: OC[C@H]1OC(O)[C@H](O)[C@@H](O)[C@@H]1O (stereo partly drawn) [Glucose]

Compound: O=C(O)CI [Iodoacetic acid]
Effect on enzyme activity (in words) (endo-α-GalNAcase [1]): almost unaffected | Relative activity (endo-α-GalNAcase [1]; endo-alpha-galnacase, pH 4.5, 2400 µM): 109%

Effect on enzyme activity (in words) (endo-α-GalNAcase [1]; Table 2): almost unaffected | Relative activity (endo-α-GalNAcase [1]; [5]): 97%
Compound: OCCS [Mercaptoethanol]

Compound: [Mn+2] [Mn]
Inhibition of the enzyme (endo-α-GalNAcase [1]; Table 2): 26-35% | Relative activity (endo-α-GalNAcase [1]; [4]): 65%

Compound: CCN1C(=O)C=CC1=O [N-Ethylmaleimide]
Effect on enzyme activity (in words) (endo-α-GalNAcase [1]; Table 2): almost unaffected | Relative activity (endo-α-GalNAcase [1]; [5]): 105%

Compound: CC(=O)N[C@H]1[C@H]([C@H](O)[C@H](O)CO)OC(O)(C(=O)O)C[C@@H]1O (stereo partly drawn) [Sialic acid]
Relative activity (endo-α-GalNAcase [1]; additive concentration 1.0 mM, no additive = 100): 106%

Compound: [Zn+2] [Zn]
Relative activity (endo-α-GalNAcase [1]; [4]): 88%

Compound: O=C(O)c1cc[c]([Hg][Cl])cc1 [p-Chloromercuribenzoic acid]
Effect on enzyme activity (in words) (endo-α-GalNAcase [1]; Table 2): almost unaffected | Relative activity (endo-α-GalNAcase [1]; [5]): 99%

Compound: asialofetuin: glycoprotein with O-glycosidic Gal β1→3GalNAc α→Ser (or Thr) sugar chains, used as substrate
Use as substrate of the enzyme (endo-α-GalNAcase [2]): can be used as substrates

Compound: endo-α-N-acetylgalactosaminidase [endo-α-GalNAcase]
Optimum pH of the enzyme reaction (asialofetuin): 4.5-5.0 | Optimum temperature for the enzyme reaction (asialofetuin): 40-45 °C | relative activity of purified enzyme (asialofetuin; purified form, Example 1): 2.2 units/mg | Activity remaining ([3]; 40° C., 10 minutes in phosphate buffer, pH 6.0): about 70% | Temperature at which the enzyme is stable ([3]; 10 minutes in phosphate buffer, pH 6.0): ≤ 30 °C | pH range in which the enzyme is stable ([3]; 1 hour at 30° C.): 4.2-6.5 | Activity remaining ([3]; within pH 4.2-6.5, 1 hour at 30° C.): ≥ 90%
